Data taken from patent US20240174674A1, “NITROGEN-CONTAINING POLYCYCLIC FUSED RING COMPOUND, PHARMACEUTICAL COMPOSITION THEREOF, PREPARATION METHOD THEREFOR, AND USE THEREOF” (APPLIED PHARMACEUTICAL SCIENCE, INC., priority 2021, published 2024).
Read-outs that look alike come from different tables or passages of the source.

Target: RET G810R (Homo sapiens (Human), UniProt P07949, G810R)
Assay: HTRF KinEASE-TK kinase activity test, RET G810R
Conditions: for inhibitory activity against RET G810R relative to that of selpercatinib (LOXO-292): fold versus selpercatinib (LOXO-292)
[1] = read-out: RET G810R IC50, HTRF kinase assay

Chain of RET G810R (P07949 29-1114 G810R): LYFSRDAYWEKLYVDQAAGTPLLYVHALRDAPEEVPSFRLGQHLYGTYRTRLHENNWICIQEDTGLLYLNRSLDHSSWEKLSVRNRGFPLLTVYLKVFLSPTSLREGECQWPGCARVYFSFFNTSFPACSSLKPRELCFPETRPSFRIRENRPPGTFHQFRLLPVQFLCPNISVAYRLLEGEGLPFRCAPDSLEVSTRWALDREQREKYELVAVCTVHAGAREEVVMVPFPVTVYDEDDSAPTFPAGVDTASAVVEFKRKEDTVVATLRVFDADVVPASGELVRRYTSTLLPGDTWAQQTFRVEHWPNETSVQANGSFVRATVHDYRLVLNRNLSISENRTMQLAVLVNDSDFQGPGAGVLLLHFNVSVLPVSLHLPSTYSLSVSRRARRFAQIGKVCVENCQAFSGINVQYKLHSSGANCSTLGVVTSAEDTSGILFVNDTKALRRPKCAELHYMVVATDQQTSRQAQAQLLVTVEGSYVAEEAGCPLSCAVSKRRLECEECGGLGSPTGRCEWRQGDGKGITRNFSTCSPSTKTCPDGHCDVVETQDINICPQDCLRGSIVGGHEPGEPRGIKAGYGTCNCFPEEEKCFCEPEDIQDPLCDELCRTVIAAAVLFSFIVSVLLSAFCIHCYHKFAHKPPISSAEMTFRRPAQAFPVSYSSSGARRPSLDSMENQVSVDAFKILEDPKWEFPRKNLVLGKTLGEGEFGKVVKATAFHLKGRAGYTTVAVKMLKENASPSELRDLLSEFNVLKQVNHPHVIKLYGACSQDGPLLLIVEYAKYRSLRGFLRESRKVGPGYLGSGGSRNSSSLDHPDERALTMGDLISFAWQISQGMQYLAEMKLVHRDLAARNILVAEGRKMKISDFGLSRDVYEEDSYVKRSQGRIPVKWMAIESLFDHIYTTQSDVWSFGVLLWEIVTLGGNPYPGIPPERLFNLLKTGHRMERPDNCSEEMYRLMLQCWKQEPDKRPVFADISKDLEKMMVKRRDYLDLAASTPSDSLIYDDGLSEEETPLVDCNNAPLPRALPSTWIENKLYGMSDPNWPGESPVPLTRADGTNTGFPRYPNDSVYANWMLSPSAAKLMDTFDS

Row | IC50 [1] [nM] | inhibitory activity against RET G810R relative to that of selpercatinib (LOXO-292) [times] | IC50 [nM] | Compound
1 | 26.2 | – | – | CCOc1cc(-c2ccc(N3CCC4(CN(C(=O)c5c(F)cccc5Cl)C4)C3)nc2)c2c3cn[nH]c3nn2c1 [Compound 220, N-(6-(5-(6-ethoxy-1H-pyrazolo[3′,4′:3,4]pyrazolo[1,5-α]pyridin-4-yl)pyridin-2-yl)-2,6-diazaspiro [3.4]octan-2-yl)-2-chloro-6-fluorobenzamide]
2 | 4.1 | – | – | CCOc1cc(-c2ccc(N3C[C@H]4CN(Cc5ccc(OC)nc5)C[C@H]4C3)nc2)c2c3cn[nH]c3nn2c1 [Compound 152, 6-ethoxy-4-(6-((3aR,6aS)-5-((6-methoxypyridin-3-yl)methylene)-hexahydropyrrolo[3,4-c]pyrrol-2(1H)-yl)pyridin-3-yl)-1H-pyrazolo[3′,4′:3,4]pyrazolo[1,5-α]pyridine]
3 | 1.9 | ≥ 10 | – | CCOc1cc(-c2ccc(N3CC[C@H](NC(=O)c4cc(F)ccc4Cl)[C@@H](O)C3)nc2)c2c3cn[nH]c3nn2c1 [Compound 43]
4 | – | – | 14.5 | CCOc1cc(-c2ccc(N3CC[C@H](NCc4c(F)cccc4Cl)[C@@H](O)C3)nc2)c2c3cn[nH]c3nn2c1 [Compound 107, (3S,4S)-4-((2-chloro-6-fluorobenzyl)amino)-1-(5-(6-ethoxy-1H-pyrazolo[3′,4′:3,4]pyrazolo[1,5-α ]pyridin-4-yl)pyridin-2-yl)piperidin-3-ol]
5 | 23.6 | – | – | CCOc1cc(-c2cnc(N3CCC(C)(NC(=O)c4nc(C)ccc4Cl)CC3)cn2)c2c3cn[nH]c3nn2c1 [Compound 56]
6 | 2.1 | ≥ 10 | – | CCOc1cc(-c2ccc(N3CCC(CO)(NC(=O)c4ncccc4Cl)CC3)nc2)c2c3cn[nH]c3nn2c1 [Compound 12, 3-chloro-N-(1-(5-(6-ethoxy-1H-pyrazolo[3′,4′:3,4]pyrazolo[1,5-α]pyridin-4-yl)pyridin-2-yl)-4-(hydroxymethyl)piperidin-4-yl)picolinamide]
7 | 3 | ≥ 10 | – | O=C(N[C@H]1CCN(c2ccc(-c3cc(OCCF)cn4nc5[nH]ncc5c34)cn2)C[C@H]1O)c1c(F)cccc1F [Compound 267, N-((3R,4S)-1-(5-(6-(2-fluoroethoxy)-1H-pyrazolo[3′,4′:3,4]pyrazolo[1,5-α]pyridin-4-yl)pyridin-2-yl)-3-hydroxypiperidin-4-yl)-2,6-difluorobenzamide]
8 | 4.2 | – | – | CCOc1cc(-c2ccc(N3CC[C@H](NC(=O)c4ncccc4C(F)(F)F)[C@H](O)C3)nc2)c2c3cn[nH]c3nn2c1 [Compound 284, N-((3R,4S)-1-(5-(6-ethoxy-1H-pyrazolo[3′,4′:3,4]pyrazolo[1,5-α]pyridin-4-yl)pyridin-2-yl)-3-hydroxypiperidin-4-yl)-3-(trifluoromethyl)picolinamide]
9 | – | – | 4 | COc1ccc(CN2C3CC2CN(c2ccc(-c4cc(OCC(=O)O)cn5nc6[nH]ncc6c45)cn2)C3)cn1 [Compound 240, 2-((4-(6-(6-((6-methoxypyridin-3-yl)methyl)-3,6-diazabicyclo[3.1.1]heptan-3-yl)pyridin-3-yl)-1 H-pyrazolo[3′,4′:3,4]pyrazolo[1,5-α]pyridin-6-yl)oxy)acetic acid]
10 | 4.5 | – | – | CCOc1cc(-c2cnc(N3CCC(C)(NC(=O)c4ncc(F)cc4Cl)CC3)cn2)c2c3cn[nH]c3nn2c1 [Compound 55, 3-chloro-N-(1-(5-(6-ethoxy-1H-pyrazolo[3′,4′:3,4]pyrazolo[1,5-α]pyridin-4-yl)pyrazin-2-yl)-4-methylpiperidin-4-yl)-5-fluoro-2-picolinamide]

Further lines, the compound ahead of its results:

Row | Compound | IC50 [1] [nM] | inhibitory activity against RET G810R relative to that of selpercatinib (LOXO-292) [times] | IC50 [nM]
11 | CCOc1cc(-c2ccc(N3CC[C@H](NC(=O)c4c(F)cccc4F)[C@@H](O)C3)nc2)c2c3cn[nH]c3nn2c1 [Compound 294, N-((3S,4S)-1-(5-(6-ethoxy-1H-pyrazolo[3′,4′:3,4]pyrazolo[1,5-α]pyridin-4-yl)pyridin-2-yl)-3-hydroxypiperidin-4-yl)-2,6-difluorobenzamide] | 4.1 | – | –
12 | CCOc1cc(-c2ccc(N3CCC(Oc4ccc(OC)nn4)CC3)nc2)c2c3cn[nH]c3nn2c1 [Compound 8] | 8.7 | – | –
13 | CCOc1cc(-c2ccc(N3CCC4(CCN(C(=O)c5c(F)cccc5Cl)C4)CC3)nc2)c2c3cn[nH]c3nn2c1 [Compound 208, N-(8-(5-(6-ethoxy-1H-pyrazolo[3′,4′:3,4]pyrazolo[1,5-α]pyridin-4-yl)pyridin-2-yl)-2,8-diazaspiro [4.5]decan-2-yl)-2-chloro-6-fluorobenzamide] | 24.1 | – | –
14 | O=C(N[C@H]1CCN(c2ccc(-c3cc(OCC(F)F)cn4nc5[nH]ncc5c34)cn2)C[C@H]1O)c1cc(F)ccc1Cl [Compound 293, N-((3R,4S)-1-(5-(6-(2,2-difluoroethoxy)-1H-pyrazolo[3′,4′:3,4]pyrazolo[1,5-α]pyridin-4-yl)pyridin-2-yl)piperidin-3-hydroxypiperidin-4-yl)-2-chloro-5-fluorobenzamide] | 1.6 | ≥ 10 | –
15 | CCOc1cc(-c2ccc(N3CCC(CO)(NCc4ccc(OC)nc4)CC3)nc2)c2c3cn[nH]c3nn2c1 [Compound 229, (1-(5-(6-ethoxy-1H-pyrazolo[3′,4′:3,4]pyrazolo[1,5-α]pyridin-4-yl)pyridin-2-yl)-4-(((6-methoxypyridin-3-yl)methyl)amino)piperidin-4-yl)methanol] | 38.1 | – | –
16 | CCOc1cc(-c2cnc(N3CCC(C)(NC(=O)c4cc(F)ccc4Cl)CC3)cn2)c2c3cn[nH]c3nn2c1 [Compound 58, 2-chloro-N-(1-(5-(6-ethoxy-1H-pyrazolo[3′,4′:3,4]pyrazolo[1,5-α]pyridin-4-yl)pyrazin-2-yl)-4-methylpiperidin-4-yl)-5-fluorobenzamide] | 5.6 | – | –
17 | CCOc1cc(-c2ccc(N3CC[C@H](NC(=O)c4cc(F)ccc4Cl)[C@H](O)C3)nc2)c2c3cn[nH]c3nn2c1 [Compound 276, 2-chloro-N-((3R,4S)-1-(5-(6-ethoxy-1H-pyrazolo[3′,4′:3,4]pyrazolo[1,5-α]pyridin-4-yl)pyridin-2-yl)-3-hydroxypiperidin-4-yl)-5-fluorobenzamide] | 0.7 | ≥ 10 | –
18 | CCOc1cc(-c2ccc(N3CCC(CN4CCN(CC)CC4)(NC(=O)c4cc(F)ccc4F)CC3)nc2)c2c3cn[nH]c3nn2c1 [Compound 17, N-(1-(5-(6-ethoxy-1H-pyrazolo[3′,4′:3,4]pyrazolo[1,5-α]pyridin-4-yl)pyridin-2-yl)-4-((4-ethylpiperazin-1-yl)methyl)piperidin-4-yl)-2,5-difluorobenzamide] | 2.1 | ≥ 10 | –
19 | CCOc1cc(-c2ccc(N3C[C@@H]4[C@H](C3)[C@@H]4NCc3ccc(OC)nc3)nc2)c2c3cn[nH]c3nn2c1 [Compound 173] | 12.5 | – | –
20 | C=CC(=O)N1C2CC1CN(c1ccc(-c3cc(OCC)cn4nc5[nH]ncc5c34)cn1)C2 [Compound 250, 1-(3-(5-(6-ethoxy-1H-pyrazolo[3′,4′:3,4]pyrazolo[1,5-α]pyridin-4-yl)pyridin-2-yl)-3,6-diazabicyclo[3.1.1]heptan-6-yl)prop-2-en-1-one] | 40.8 | – | –
21 | CCOc1cc(-c2ccc(N3CC4CCC3CN4Cc3ccc(OC)nc3)nc2)c2c3cn[nH]c3nn2c1 (stereo not drawn) [Compound 160, 6-ethoxy-4-(6-(5-((6-methoxypyridin-3-yl)methyl)-2,5-diazabicyclo[2.2.2]octan-2-yl)pyridin-3-y 1)-1H-pyrazolo[3′,4′:3,4]pyrazolo[1,5-α]pyridine] | 8.2 | – | –
22 | CCOc1cc(-c2ccc(N3C4CCC3CN(C(=O)c3c(F)cccc3Cl)C4)nc2)c2c3cn[nH]c3nn2c1 [Compound 157, (2-chloro-6-fluoro)((1R,5S)-8-(5-(6-ethoxy-1H-pyrazolo[3′,4′:3,4]pyrazolo[1,5-α]pyridin-4-yl)pyridin-2-yl)-3,8-diazabicyclo[3.2.1]octan-3-yl)benzamide] | 8.6 | – | –
23 | CCOc1cc(-c2cnc(N3CCC(C)(NC(=O)c4ncccc4Cl)CC3)cn2)c2c3cn[nH]c3nn2c1 [Compound 59, 3-chloro-N-(1-(5-(6-ethoxy-1H-pyrazolo[3′,4′:3,4]pyrazolo[1,5-α]pyridin-4-yl)pyrazin-2-yl)-4-methylpiperidin-4-yl)-2-picolinamide] | – | – | 4.6
24 | CCOc1cc(-c2ccc(N3CCC(S(=O)(=O)NC(C)C)CC3)nc2)c2c3cn[nH]c3nn2c1 [Compound 101, 1-(5-(6-ethoxy-1H-pyrazolo[3′,4′:3,4]pyrazolo[1,5-α]pyridin-4-yl)pyridin-2-yl)-N-isopropylpiperidine-4-sulfonamide] | 6.6 | – | –
25 | COc1ccc(CN2C3CC2CN(c2ccc(-c4cc(C(=O)O)cn5nc6[nH]ncc6c45)cn2)C3)cn1 [Compound 239, 4-(6-(6-((6-methoxypyridin-3-yl)methyl)-3,6-diazabicyclo[3.1.1]heptan-3-yl)pyridin-3-yl)-1H-py razolo[3′,4′:3,4]pyrazolo[1,5-α]pyridine-6-carboxylic acid] | 33.7 | – | –
26 | COc1cc(-c2ccc(N3CC4CC(C3)N4Cc3ccc(OC)nc3)nc2)c2c3cn[nH]c3nn2c1 [Compound 235] | 2.2 | ≥ 10 | –
27 | CCOc1cc(-c2ccc(N3C[C@@H]4[C@@H](CNC(=O)c5c(F)cccc5Cl)[C@@H]4C3)nc2)c2c3cn[nH]c3nn2c1 [Compound 183, 2-chloro-N-(((1R,5S,6s)-3-(5-(6-ethoxy-1H-pyrazolo[3′,4′:3,4]pyrazolo[1,5-α]pyridin-4-yl)pyridin-2-yl)-3-azabicyclo[3.1.0]hexan-6-yl)methyl)-6-fluorobenzamide] | 8 | – | –
28 | CCOc1cc(-c2ccc(N3CC4COCC(C3)N4Cc3ccc(OC)nc3)nc2)c2c3cn[nH]c3nn2c1 [Compound 114, 7-(5-(6-ethoxy-1H-pyrazolo[3′,4′:3,4]pyrazolo[1,5-α]pyridin-4-yl)pyridin-2-yl)-9-((6-methoxypyridin-3-yl)methylene)-3-oxa-7,9-diazabicyclo[3.3.1]nonane] | 3.6 | ≥ 10 | –
29 | CCOc1cc(-c2ccc(N3CC[C@H](NC(=O)c4ncccc4C(F)(F)F)[C@@H](O)C3)nc2)c2c3cn[nH]c3nn2c1 [Compound 45] | 5.2 | – | –
